{
  "source": "patent US20090318546A1",
  "about": "“Chromen-2-One Derivatives” (NOVARTIS AG, priority 2006, published 2009)",
  "format_in_all_cases": "cell-based",
  "key": {"S1P-4": {"target": "T1, S1P-4 (Homo sapiens, UniProt O95977)", "T1 construct": "expressed in transfected cells; host or cells: CHO cells (G418 selection)", "T1 sequence (O95977 1-384)": "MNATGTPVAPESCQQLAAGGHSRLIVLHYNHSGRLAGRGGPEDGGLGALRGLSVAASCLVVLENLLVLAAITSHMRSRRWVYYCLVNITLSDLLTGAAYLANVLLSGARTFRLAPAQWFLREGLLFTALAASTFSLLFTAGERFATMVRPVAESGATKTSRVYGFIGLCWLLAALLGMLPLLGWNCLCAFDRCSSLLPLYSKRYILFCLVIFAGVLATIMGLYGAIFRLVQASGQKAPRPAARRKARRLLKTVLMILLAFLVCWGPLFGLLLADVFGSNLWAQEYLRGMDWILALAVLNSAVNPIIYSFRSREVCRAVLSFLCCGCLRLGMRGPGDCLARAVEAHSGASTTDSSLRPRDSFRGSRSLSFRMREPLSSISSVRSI", "assay": "FLIPR calcium flux assay, S1P-4", "settings": "agonist activity"}, "S1P1": {"target": "T2, S1P1 (Homo sapiens, UniProt P21453)", "T2 construct": "expressed in transfected cells; host or cells: CHO cells (G418 selection)", "T2 sequence (P21453 whole entry)": "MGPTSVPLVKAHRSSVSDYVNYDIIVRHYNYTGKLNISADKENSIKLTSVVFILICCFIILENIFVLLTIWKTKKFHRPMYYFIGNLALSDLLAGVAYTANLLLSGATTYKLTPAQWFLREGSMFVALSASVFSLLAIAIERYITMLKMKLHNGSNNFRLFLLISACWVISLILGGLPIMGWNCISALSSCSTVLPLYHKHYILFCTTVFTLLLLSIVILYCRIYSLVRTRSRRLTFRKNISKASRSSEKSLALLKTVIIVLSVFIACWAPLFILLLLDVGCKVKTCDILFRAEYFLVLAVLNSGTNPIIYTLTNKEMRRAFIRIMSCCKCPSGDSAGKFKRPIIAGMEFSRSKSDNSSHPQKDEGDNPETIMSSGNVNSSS", "assay": "FLIPR calcium flux assay, CHO cells expressing S1P1", "settings": "agonist activity; read-out: EC50 for S1P-1", "procedure": "(§1) A.2 FLIPR Calcium Flux Assay\n(§2) Compounds of the invention are tested for agonist activity on S1P1, S1P3, S1P5, and S1P6 with a FLIPR calcium flux assay. Briefly, CHO cells expressing an S1P receptor are maintained in F-12K medium (ATCC), containing 5% FBS, with 500 ug/ml of G418. Prior to the assay, the cells are plated in 384 black clear bottom plates at the density of 10,000 cells/well/25 µl in the medium of F-12K containing 1% FBS. The second day, the cells are washed three times (25 μl/each) with washing buffer. About 25 μl of dye are added to each well and incubated for 1 hour at 37° C. and 5% CO2. The cells are then washed four times with washing buffer (25 μl/each). The calcium flux is assayed after adding 25 μl of SEW2871 (published by Rosen et al., used as reference) solution to each well of cells. The same assay is performed with cells expressing each of the different S1P receptors. Titration in the FLIPR calcium flux assay is recorded over a 3-minute interval, and quantitated as maximal peak height percentage response relative to S1P-1 activation. The compounds of the invention are active in this assay at a concentration of from 10^−12 and […]."}, "S1P5": {"target": "T3, S1P5 (Homo sapiens, UniProt Q9H228)", "T3 construct": "expressed in transfected cells; host or cells: CHO cells (G418 selection)", "T3 sequence (Q9H228 whole entry)": "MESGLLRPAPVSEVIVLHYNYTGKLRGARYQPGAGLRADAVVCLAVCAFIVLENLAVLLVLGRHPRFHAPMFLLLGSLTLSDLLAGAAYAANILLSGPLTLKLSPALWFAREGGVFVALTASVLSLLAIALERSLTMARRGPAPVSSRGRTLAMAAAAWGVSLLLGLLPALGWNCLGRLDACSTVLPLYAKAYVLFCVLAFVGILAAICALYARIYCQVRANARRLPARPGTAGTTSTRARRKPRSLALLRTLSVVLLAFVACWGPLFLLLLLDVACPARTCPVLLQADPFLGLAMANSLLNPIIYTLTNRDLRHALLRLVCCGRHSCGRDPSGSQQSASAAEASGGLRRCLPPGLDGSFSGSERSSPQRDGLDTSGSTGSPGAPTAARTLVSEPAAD", "assay": "FLIPR calcium flux assay, CHO cells expressing S1P5", "settings": "agonist activity; read-out: EC50 for S1P-5", "procedure": "as §1, §2"}, "S1P3": {"target": "T4, S1P3 (Homo sapiens, UniProt Q99500)", "T4 construct": "expressed in transfected cells; host or cells: CHO cells (G418 selection)", "T4 sequence (Q99500 whole entry)": "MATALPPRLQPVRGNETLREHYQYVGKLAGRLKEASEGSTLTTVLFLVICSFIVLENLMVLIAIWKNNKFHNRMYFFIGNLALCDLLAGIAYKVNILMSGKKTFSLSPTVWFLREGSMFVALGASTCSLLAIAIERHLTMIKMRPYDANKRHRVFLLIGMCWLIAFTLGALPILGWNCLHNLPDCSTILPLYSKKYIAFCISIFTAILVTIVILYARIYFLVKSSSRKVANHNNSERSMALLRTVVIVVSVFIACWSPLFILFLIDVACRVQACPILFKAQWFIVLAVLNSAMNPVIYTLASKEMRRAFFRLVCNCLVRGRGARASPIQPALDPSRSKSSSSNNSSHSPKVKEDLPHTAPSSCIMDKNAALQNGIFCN", "assay": "FLIPR calcium flux assay, CHO cells expressing S1P3", "settings": "agonist activity; read-out: EC50 for S1P-3", "procedure": "as §1, §2"}, "S1P-2": {"target": "T5, S1P-2 (Homo sapiens, UniProt O95136)", "T5 construct": "expressed in transfected cells; host or cells: CHO cells (G418 selection)", "T5 sequence (O95136 whole entry)": "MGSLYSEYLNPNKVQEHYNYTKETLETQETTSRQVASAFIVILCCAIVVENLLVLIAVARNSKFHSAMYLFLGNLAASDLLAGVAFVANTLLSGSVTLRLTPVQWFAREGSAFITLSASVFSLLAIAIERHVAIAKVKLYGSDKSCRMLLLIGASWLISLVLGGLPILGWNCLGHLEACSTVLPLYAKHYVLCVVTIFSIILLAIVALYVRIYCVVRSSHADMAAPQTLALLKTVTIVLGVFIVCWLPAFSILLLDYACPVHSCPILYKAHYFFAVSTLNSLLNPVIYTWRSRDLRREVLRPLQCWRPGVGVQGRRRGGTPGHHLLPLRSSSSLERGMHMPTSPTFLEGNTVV", "assay": "FLIPR calcium flux assay, S1P-2", "settings": "agonist activity", "procedure": "as §1, §2"}},
  "data": [
    {"smiles": "CCCc1c(OC)ccc2cc(C(=O)Nc3ccc(CN)cc3)c(=O)oc12", "note": "[Example 1, 7-Methoxy-2-oxo-8-propyl-2H-chromene-3-carboxylic acid (4-aminomethyl-phenyl)-amide]", "values": [
      {"measurement": "EC50", "setting": "S1P-4", "value": "> 1000", "unit": "nM"},
      {"measurement": "EC50", "setting": "S1P1", "value": 8.7, "unit": "nM"},
      {"measurement": "EC50", "setting": "S1P5", "value": "> 1000", "unit": "nM"},
      {"measurement": "EC50", "setting": "S1P3", "value": "> 1000", "unit": "nM"},
      {"measurement": "EC50", "setting": "S1P-2", "value": "> 1000", "unit": "nM"}
    ]}
  ]
}
